Measurements as given in patent US10238658B2, “1-pyrazolyl-3-(4-((2-anilinopyrimidin-4-yl) oxy) napththalen-1-yl) ureas as p38 MAP kinase inhibitors” (Respivert Limited, priority 2011, dated 2019).
pEC50, pIC50: −log10 of the molar value.

Legend:
TNFα [1] = test: LPS-induced TNFα release in THP-1 cells; format: cell-based; settings: Homo sapiens, THP-1, THP1 cells
Description: THP-1 cells, a human monocytic cell line, were stimulated with 3 μg/mL of LPS (from E. Coli; 0111:B4, Sigma) for 4 hr and the supernatant collected for determination of the TNFα concentration by sandwich ELISA (Duo-set, R&D systems). The inhibition of TNFα production was calculated at each concentration by comparison with vehicle control.

TNFα [2] = test: LPS-induced TNFα release in d-U937 cells; format: cell-based; settings: Homo sapiens, dU937, dU937 cells; relative to 10 μg/mL BIRB796; read-out: LPS Induced Release TNFα REC50 (dU937)
Method in brief: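 U937 cells differentiated with PMA (100 ng/mL, 48–72 hr) were pre-incubated with compound for 2 hr, then stimulated with E. coli O111:B4 LPS (0.1 μg/mL) for 4 hr. Supernatant cytokine measured by sandwich ELISA; inhibition vs vehicle control at each concentration, REC50 taken from the concentration-response curve.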

IL-8 = test: Rhinovirus-induced IL-8 release in BEAS2B cells; format: cell-based; settings: Homo sapiens, BEAS-2B
Method in brief: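 BEAS2B cells infected with HRV RV16 at MOI 5 for 2 h at 33 °C, washed, then cultured 72 h; compounds given 2 h before infection and again after washout. IL-8 measured in supernatant by ELISA; surface ICAM-1 by cell-based ELISA (OD450–655), normalised to crystal violet cell count (OD595).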

HRV16 = HRV16 induced CPE in MRC5 cells; format: cell-based; settings: Human rhinovirus sp.; for inhibition at 0.04 µg/mL: HRV16, MRC5, at 0.04 μg/mL, read-out: HRV CPE (MRC5) % inhibition
Description: The supernatants were aspirated, and then fresh media added followed by incubation for 4 days. Where appropriate, cells were pre-incubated with compound or DMSO for 2 hr, and the compounds and DMSO added again after washout of the virus.
The percentage inhibition for each well was calculated. The IC50 value was calculated from the concentration-response curve generated by the serial dilutions of the test compounds.

RSV A2 = test: In vitro RSV virus load (F-protein ELISA) in primary bronchial epithelial cells; format: cell-based, respiratory syncytical virus; settings: human respiratory syncytial virus, Primary bronchial epithelial cell; for inhibition at 0.04 µg/mL: at 0.04 μg/mL, read-out: RSV (F-Elisa) (HBEC) % inhibition
Description: Normal human bronchial epithelial cells (NHBEC) grown in 96 well plates were infected with RSV A2 (Strain A2, HFA, Salisbury, UK) at an MOI of 0.001 in the LHC8 Media:RPMI-1640 (50:50) containing 15 mM magnesium chloride and incubated for 1 hr at 37° C. for adsorption. The cells were then washed with PBS (3×200 μL), fresh media (200 μL) was added and incubation continued for 4 days. Where appropriate, cells were pre-incubated with the compound or DMSO for 2 hr, and then added again after washout of the virus.
The cells were fixed with 4% formaldehyde in PBS solution (50 μL) for 20 min, washed with washing buffer (3×200 μL; PBS including 0.5% BSA and 0.05% Tween-20) and incubated with blocking solution (5% condensed milk in PBS) for 1 hr. Cells were then washed with washing buffer (3×200 μL) and incubated for 1 hr at RT with anti-RSV (2F7) F-fusion protein antibody (40 μL; mouse monoclonal, lot 798760, Cat. No. ab43812, Abcam) in 5% BSA in PBS-tween). After washing, cells were incubated with an HRP-conjugated secondary antibody solution (50 μL) in 5% BSA in PBS-Tween (lot 00053170, Cat.No. P0447, Dako) and then TMB substrate (50 μL; substrate reagent pack, lot 269472, Cat. No. DY999, R&D Systems, Inc.) was added. This reaction was stopped by the addition of 2N H2SO4 (50 μL) and the resultant signal was determined colorimetrically (OD: 450 nm with a reference wavelength of 655 nm) in a microplate reader (Varioskan® Flash, ThermoFisher Scientific).
After washing with washing buffer, 1% SDS in distilled water (100 μL) was added to each well, and plates were shaken lightly on the shaker for 1 hr prior to reading the absorbance at 595 nm. The measured OD450-655 readings were corrected to the cell number by dividing the OD450-655 by the OD595 readings. The percentage inhibition for each well was calculated and the IC50 value was calculated from the concentration-response curve generated from the serial dilutions of compound.

PBMC = test: Cell mitosis assay; format: cell-based; settings: Homo sapiens; for inhibition at 5 µg/mL: read-out: Mitosis Assay % inhibition in PBMC Cells at concn 5 μg/mL
Method in brief: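 PBMCs from healthy donors, stimulated 48 hr with 2% PHA, then exposed 20 hr to test compounds; demecolcine 0.1 μg/mL added 2 hr before harvest for metaphase arrest. Cells fixed/permeabilised, stained with anti-phospho-histone 3 and propidium iodide; mitotic cells counted by flow cytometry gated on lymphocytes.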

| Structure (SMILES) | pIC50 (TNFα [1]) | pEC50 (TNFα [2]) | pIC50 (IL-8; BEAS2B cells, HRV-16) | inhibition at 0.04 µg/mL (HRV16) [%] | pIC50 (HRV16; HRV16, MRC5 cells, HRV-16) | inhibition at 0.04 µg/mL (RSV A2) [%] | pIC50 (RSV A2; read-out: RSV (F-Elisa) (HBEC) IC50) | inhibition at 1 µg/mL (PBMC; read-out: Mitosis Assay % inhibition in PBMC Cells at concn 1 μg/mL) [%] | inhibition at 5 µg/mL (PBMC) [%] | inhibition at 0.04 µg/mL (IL-8; at 0.04 μg/mL, read-out: HRV IL-8 (BEAS2B) % inhibition) [%] |
| --- | --- | --- | --- | --- | --- | --- | --- | --- | --- | --- |
| Cc1ccc(-n2nc(C(C)(C)C)cc2NC(=O)Nc2ccc(Oc3ccnc(Nc4ccccc4)n3)c3ccccc23)cc1 [Example 1, 1-(3-(tert-Butyl)-1-(p-tolyl)-1H-pyrazol-5-yl)-3-(4-(2-(phenylamino)pyrimidin-4-yloxy)naphthalen-1-yl)urea] | 8.47 | 8.64 | 10.44 | 57 | 7.77 | 85 | 7.81 | 13.7 | 31.3 | – |
| Cc1ccc(-n2nc(C(C)(C)C)cc2NC(=O)Nc2ccc(Oc3ccnc(Nc4cccc(O)c4)n3)c3ccccc23)cc1 [Example 2, 1-(3-(tert-Butyl)-1-(p-tolyl)-1H-pyrazol-5-yl)-3-(4-((2-((3-hydroxyphenyl)amino)pyrimidin-4-yl)oxy)naphthalen-1-yl)urea] | 8.55 | 8.62 | – | 5 | – | 42 | – | – | 70.6 | 100 |
